Measurements as given in ChEMBL document CHEMBL5247626, “In vitro and in vivo biological evaluation of newly synthesized multi-target 20(R)-panaxadiol derivatives for treating Alzheimer's disease” (Eur J Med Chem, 2022).

These compounds were tested on PC-12 (assay: Neuroprotective activity against rat PC12 cells assessed as reduction in amyloid beta (25 to 35)-induced cytotoxicity at 15 uM incubated for 4 hrs followed by amyloid beta (25 to 35) treatment for 24 hrs by MTT assay relative to control). Conditions: time 28 hrs.
Format: functional
Design: scale not given: the % may be the effect or the level left
Compound `COC(=O)[C@H](NC(=O)CCC(=O)O[C@H]1CC[C@]2(C)[C@H]3C[C@@H](O)[C@@H]4[C@@H]([C@@]5(C)CCCC(C)(C)O5)CC[C@@]4(C)[C@]3(C)CC[C@H]2C1(C)C)C(C)C` has an Activity of 25.34%.
`CC1(C)CCC[C@](C)([C@H]2CC[C@]3(C)[C@@H]2[C@H](O)C[C@@H]2[C@@]4(C)CC[C@H](OC(=O)c5cn(-c6ccc(F)cc6)nn5)C(C)(C)[C@@H]4CC[C@]23C)O1` gave an Activity of 33.68%.
`CC1(C)CCC[C@](C)([C@H]2CC[C@]3(C)[C@@H]2[C@H](O)C[C@@H]2[C@@]4(C)CC[C@H](OC(=O)Nc5ccc(F)cc5)C(C)(C)[C@@H]4CC[C@]23C)O1` showed an Activity of 67.4%.
`CC1(C)CCC[C@](C)([C@H]2CC[C@]3(C)[C@@H]2[C@H](O)C[C@@H]2[C@@]4(C)CC[C@H](OC(=O)/C=C/c5ccc(N6CCOCC6)cc5)C(C)(C)[C@@H]4CC[C@]23C)O1` was tested, and the Activity was 32.75%.
`CC1(C)CCC[C@](C)([C@H]2CC[C@]3(C)[C@@H]2[C@H](O)C[C@@H]2[C@@]4(C)CC[C@H](OC(=O)Nc5ccccc5)C(C)(C)[C@@H]4CC[C@]23C)O1` showed an Activity of 71.32%.
`COc1ccc(-n2cc(C(=O)O[C@H]3CC[C@]4(C)[C@H]5C[C@@H](O)[C@@H]6[C@@H]([C@@]7(C)CCCC(C)(C)O7)CC[C@@]6(C)[C@]5(C)CC[C@H]4C3(C)C)nn2)cc1` showed an Activity of 52.37%.
`COC(=O)[C@@H](Cc1ccccc1)NC(=O)CCC(=O)O[C@H]1CC[C@]2(C)[C@H]3C[C@@H](O)[C@@H]4[C@@H]([C@@]5(C)CCCC(C)(C)O5)CC[C@@]4(C)[C@]3(C)CC[C@H]2C1(C)C` gave an Activity of 33.77%.
Work on `CC1(C)CCC[C@](C)([C@H]2CC[C@]3(C)[C@@H]2[C@H](O)C[C@@H]2[C@@]4(C)CC[C@H](OC(=O)Nc5cccc(F)c5)C(C)(C)[C@@H]4CC[C@]23C)O1` yielded an Activity of 65.25%.
With `CC1(C)CCC[C@](C)([C@H]2CC[C@]3(C)[C@@H]2[C@H](O)C[C@@H]2[C@@]4(C)CC[C@H](OC(=O)CN5CCCCC5)C(C)(C)[C@@H]4CC[C@]23C)O1.Cl` the Activity was 12.66%.
In the case of `COc1cc(/C=C/C(=O)O[C@H]2CC[C@]3(C)[C@H]4C[C@@H](O)[C@@H]5[C@@H]([C@@]6(C)CCCC(C)(C)O6)CC[C@@]5(C)[C@]4(C)CC[C@H]3C2(C)C)ccc1O`, the Activity is reported as 55.55%.
`CCNC(=O)O[C@H]1CC[C@]2(C)[C@H]3C[C@@H](O)[C@@H]4[C@@H]([C@@]5(C)CCCC(C)(C)O5)CC[C@@]4(C)[C@]3(C)CC[C@H]2C1(C)C` was tested, and the Activity was 65.69%.
`CC1(C)CCC[C@](C)([C@H]2CC[C@]3(C)[C@@H]2[C@H](O)C[C@@H]2[C@@]4(C)CC[C@H](OC(=O)Nc5ccc(Cl)cc5)C(C)(C)[C@@H]4CC[C@]23C)O1` was tested, and the Activity was 64.16%.
`CCCCCCNC(=O)O[C@H]1CC[C@]2(C)[C@H]3C[C@@H](O)[C@@H]4[C@@H]([C@@]5(C)CCCC(C)(C)O5)CC[C@@]4(C)[C@]3(C)CC[C@H]2C1(C)C` was tested, and the Activity was 50.09%.
Work on `CC1(C)CCC[C@](C)([C@H]2CC[C@]3(C)[C@@H]2[C@H](O)C[C@@H]2[C@@]4(C)CC[C@H](OC(=O)CN5CCOCC5)C(C)(C)[C@@H]4CC[C@]23C)O1.Cl` yielded an Activity of 23.96%.
For `C=CCNC(=O)O[C@H]1CC[C@]2(C)[C@H]3C[C@@H](O)[C@@H]4[C@@H]([C@@]5(C)CCCC(C)(C)O5)CC[C@@]4(C)[C@]3(C)CC[C@H]2C1(C)C`, the Activity was 70.06%.
In the case of `COC(=O)[C@H](NC(=O)CCC(=O)O[C@H]1CC[C@]2(C)[C@H]3C[C@@H](O)[C@@H]4[C@@H]([C@@]5(C)CCCC(C)(C)O5)CC[C@@]4(C)[C@]3(C)CC[C@H]2C1(C)C)c1ccccc1`, the Activity is reported as 22.85%.
Work on `COC(=O)[C@@H](CC(C)C)NC(=O)CCC(=O)O[C@H]1CC[C@]2(C)[C@H]3C[C@@H](O)[C@@H]4[C@@H]([C@@]5(C)CCCC(C)(C)O5)CC[C@@]4(C)[C@]3(C)CC[C@H]2C1(C)C` yielded an Activity of 16.07%.
In the case of `CC1(C)CCC[C@](C)([C@H]2CC[C@]3(C)[C@@H]2[C@H](O)C[C@@H]2[C@@]4(C)CC[C@H](OC(=O)c5cn(-c6ccc([N+](=O)[O-])cc6)nn5)C(C)(C)[C@@H]4CC[C@]23C)O1`, the Activity is reported as 23.76%.
`CC1(C)CCC[C@](C)([C@H]2CC[C@]3(C)[C@@H]2[C@H](O)C[C@@H]2[C@@]4(C)CC[C@H](OC(=O)c5cn(-c6ccccc6)nn5)C(C)(C)[C@@H]4CC[C@]23C)O1` showed an Activity of 25.49%.
`CC1(C)CCC[C@](C)([C@H]2CC[C@]3(C)[C@@H]2[C@H](O)C[C@@H]2[C@@]4(C)CC[C@H](OC(=O)CN5CCN(Cc6ccccc6)CC5)C(C)(C)[C@@H]4CC[C@]23C)O1.Cl` showed an Activity of 37.37%.
`CC1(C)CCC[C@](C)([C@H]2CC[C@]3(C)[C@@H]2[C@H](O)C[C@@H]2[C@@]4(C)CC[C@H](OC(=O)NC5CCCCC5)C(C)(C)[C@@H]4CC[C@]23C)O1` was tested, and the Activity was 66.39%.
With `CC1(C)CCC[C@](C)([C@H]2CC[C@]3(C)[C@@H]2[C@H](O)C[C@@H]2[C@@]4(C)CC[C@H](OC(=O)/C=C/c5ccccc5)C(C)(C)[C@@H]4CC[C@]23C)O1` the Activity was 22.78%.
In the case of `CC(C)NC(=O)O[C@H]1CC[C@]2(C)[C@H]3C[C@@H](O)[C@@H]4[C@@H]([C@@]5(C)CCCC(C)(C)O5)CC[C@@]4(C)[C@]3(C)CC[C@H]2C1(C)C`, the Activity is reported as 69.45%.
Work on `Cc1ccc(NC(=O)O[C@H]2CC[C@]3(C)[C@H]4C[C@@H](O)[C@@H]5[C@@H]([C@@]6(C)CCCC(C)(C)O6)CC[C@@]5(C)[C@]4(C)CC[C@H]3C2(C)C)cc1` yielded an Activity of 64.13%.
For `CCCCCCCNC(=O)O[C@H]1CC[C@]2(C)[C@H]3C[C@@H](O)[C@@H]4[C@@H]([C@@]5(C)CCCC(C)(C)O5)CC[C@@]4(C)[C@]3(C)CC[C@H]2C1(C)C`, the Activity was 59.9%.
For `CC1(C)CCC[C@](C)([C@H]2CC[C@]3(C)[C@@H]2[C@H](O)C[C@@H]2[C@@]4(C)CC[C@H](OC(=O)/C=C/c5ccco5)C(C)(C)[C@@H]4CC[C@]23C)O1`, the Activity was 40.56%.
For `COc1cc(/C=C/C(=O)O[C@H]2CC[C@]3(C)[C@H]4C[C@@H](O)[C@@H]5[C@@H]([C@@]6(C)CCCC(C)(C)O6)CC[C@@]5(C)[C@]4(C)CC[C@H]3C2(C)C)cc(OC)c1OC`, the Activity was 36.23%.
`CC1(C)CCC[C@](C)([C@H]2CC[C@]3(C)[C@@H]2[C@H](O)C[C@@H]2[C@@]4(C)CC[C@H](OP(=O)(Oc5ccc(F)cc5)Oc5ccc(F)cc5)C(C)(C)[C@@H]4CC[C@]23C)O1` gave an Activity of 48.68%.
Work on `CCCNC(=O)O[C@H]1CC[C@]2(C)[C@H]3C[C@@H](O)[C@@H]4[C@@H]([C@@]5(C)CCCC(C)(C)O5)CC[C@@]4(C)[C@]3(C)CC[C@H]2C1(C)C` yielded an Activity of 65.9%.
Compound `COc1ccc(OP(=O)(Oc2ccc(OC)cc2)O[C@H]2CC[C@]3(C)[C@H]4C[C@@H](O)[C@@H]5[C@@H]([C@@]6(C)CCCC(C)(C)O6)CC[C@@]5(C)[C@]4(C)CC[C@H]3C2(C)C)cc1` has an Activity of 57.15%.
